Assay results: ChEMBL document CHEMBL1201862, “PubChem BioAssay data set” (2004)
Activity calls are given as the source filed them.

Legend:
[1] = target: T1, Oxysterols receptor LXR-beta (Homo sapiens, UniProt P55055); assay type: functional, cell-based;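 also: Cell-based luminescence dose-response assay of agonist activity at LXR, run as a confirmatory counterscreen to a daf-12 agonist screen; HEK293 cells with Gal4-LXR fusion and GAL4-driven luciferase reporter; agonist potency from rising luciferase signal of a Gal4-LXR reporter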
T1 sequence (P55055 whole entry): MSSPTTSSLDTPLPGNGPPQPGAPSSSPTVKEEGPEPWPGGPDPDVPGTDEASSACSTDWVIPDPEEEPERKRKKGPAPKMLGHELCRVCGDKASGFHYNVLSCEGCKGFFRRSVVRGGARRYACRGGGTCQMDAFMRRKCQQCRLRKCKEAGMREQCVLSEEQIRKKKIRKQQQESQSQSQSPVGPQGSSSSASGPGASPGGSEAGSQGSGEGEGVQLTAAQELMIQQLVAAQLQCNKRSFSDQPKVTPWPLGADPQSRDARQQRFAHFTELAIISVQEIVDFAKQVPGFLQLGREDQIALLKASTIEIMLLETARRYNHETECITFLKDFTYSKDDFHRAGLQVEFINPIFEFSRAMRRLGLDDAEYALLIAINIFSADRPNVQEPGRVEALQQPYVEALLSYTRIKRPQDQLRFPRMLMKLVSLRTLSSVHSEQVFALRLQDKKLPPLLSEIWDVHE

[2] = HEp-2 cell cytotoxicity, dose response, cytotoxicity control for RSV inhibitor project, HTS (AID 2410); assay type: functional; conditions: human respiratory syncytial virus
[3] = target: Voltage-gated inwardly rectifying potassium channel KCNH2 (Homo sapiens, UniProt Q12809); assay: hERG protection from proarrhythmic block, potency, dose response, cell-based, thallium flux (AID 2121); assay type: ADME
Streptokinase A = target: T2, Streptokinase A (Streptococcus pyogenes serotype M1, UniProt P10520); assay: S. pyogenes streptokinase expression inhibitors, potency, dose response, plasminogen activation absorbance, OD405 (AID 1914); assay type: functional, Streptococcus pyogenes M1 GAS;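 also: secreted streptokinase activity via plasminogen activation per viability signal from cell pellet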
T2 sequence (P10520 whole entry): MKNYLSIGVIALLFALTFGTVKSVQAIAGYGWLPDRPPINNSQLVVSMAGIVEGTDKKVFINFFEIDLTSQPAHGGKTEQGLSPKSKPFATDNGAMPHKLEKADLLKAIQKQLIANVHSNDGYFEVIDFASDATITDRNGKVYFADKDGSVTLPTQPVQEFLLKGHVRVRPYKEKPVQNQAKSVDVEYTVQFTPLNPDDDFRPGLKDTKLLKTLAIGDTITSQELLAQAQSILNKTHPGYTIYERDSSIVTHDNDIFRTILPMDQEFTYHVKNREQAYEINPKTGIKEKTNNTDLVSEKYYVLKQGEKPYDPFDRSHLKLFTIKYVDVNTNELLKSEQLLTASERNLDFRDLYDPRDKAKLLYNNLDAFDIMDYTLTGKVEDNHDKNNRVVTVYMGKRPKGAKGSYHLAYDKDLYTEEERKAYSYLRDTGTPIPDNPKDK

[4] = target: T3, Probable nicotinate-nucleotide adenylyltransferase (Staphylococcus aureus (strain N315), UniProt P65502); assay type: functional, Staphylococcus aureus subsp. aureus N315;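 as to IC50 Mean: confirmatory dose-response retesting of NadD inhibitor hits first found in an ultra-high-throughput screen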
[5] = target: Glucose-6-phosphate 1-dehydrogenase (Homo sapiens, UniProt P11413); assay: human G6PD enzyme inhibitors, dose response, selectivity assay for P. falciparum G6PD inhibitor project, biochemical, fluorescence (AID 504792); assay type: functional
Protein Tat = Protein Tat (Human immunodeficiency virus type 1 group M subtype B (isolate HXB2)(HIV-1), UniProt P04608); assay type: functional;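 also: tat binding to TAR RNA read out by fluorescence polarization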
[6] = THP-1 cell cytotoxicity, dose response, cytotoxicity control for Vif-APOBEC3G degradation inhibitor project, THP-1 cells (AID 1117359); assay type: functional; conditions: Human immunodeficiency virus 1, THP-1
[7] = target: Glutathione-S-transferase (Schistosoma japonicum, UniProt Q26513); assay: biotin-GST/anti-GST TR-FRET signal inhibitors, dose response, artefact control for Vif-APOBEC3G degradation inhibitor project, biochemical (AID 1117362); assay type: functional
[8] = cytotoxicity toward DRD oncogenic fibroblasts, dose response, cell-based, non-viral oncogenic, luminescence (AID 1934); assay type: functional; conditions: Homo sapiens
[9] = target: T3, Probable nicotinate-nucleotide adenylyltransferase; assay type: functional, Staphylococcus aureus subsp. aureus N315; conditions: read-out: IC50_Mean
BJ [10] = assay: cytotoxicity toward BJ-TERT fibroblasts, dose response, cell-based, RAS-independent, luminescence (AID 1933); assay type: functional; conditions: Homo sapiens
BJ [11] = assay: cells; assay type: functional, cell-based; conditions: Homo sapiens
Nonstructural protein 1 = Nonstructural protein 1 (Influenza A virus, UniProt Q194T2); assay type: functional, Influenza A virus (A/California/07/2009(H1N1))
BJ [12] = assay: cytotoxicity toward BJ-TERT-LT-ST fibroblasts, dose response, cell-based, RAS-independent, luminescence (AID 1935); assay type: functional; conditions: Homo sapiens;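 also: BJ fibroblasts immortalized with TERT plus LT and ST oncogenes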
NADPH oxidase 1 = target: T4, NADPH oxidase 1 (Homo sapiens, UniProt Q9Y5S8); assay: Late-stage luminescence-based cell-based dose response assay to identify inhibitors of NADPH oxidase 1 (NOX1): Synthesized analogs 2.; assay type: functional
T4 sequence (Q9Y5S8 whole entry): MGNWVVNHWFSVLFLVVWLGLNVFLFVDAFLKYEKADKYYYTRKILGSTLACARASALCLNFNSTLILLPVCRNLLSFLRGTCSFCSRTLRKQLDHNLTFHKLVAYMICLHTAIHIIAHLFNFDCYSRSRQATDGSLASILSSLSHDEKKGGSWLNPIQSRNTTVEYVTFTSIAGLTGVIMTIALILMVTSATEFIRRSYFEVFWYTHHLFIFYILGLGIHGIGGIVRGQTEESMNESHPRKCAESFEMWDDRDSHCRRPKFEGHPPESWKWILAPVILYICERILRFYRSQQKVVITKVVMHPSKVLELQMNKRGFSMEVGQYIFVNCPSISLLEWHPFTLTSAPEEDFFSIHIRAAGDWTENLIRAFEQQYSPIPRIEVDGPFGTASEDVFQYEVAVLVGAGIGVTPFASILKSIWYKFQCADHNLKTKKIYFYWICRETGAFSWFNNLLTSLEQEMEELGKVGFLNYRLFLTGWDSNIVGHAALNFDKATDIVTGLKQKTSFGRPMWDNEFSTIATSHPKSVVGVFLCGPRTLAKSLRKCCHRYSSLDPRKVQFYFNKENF

[13] = P. falciparum Dd2 blood-stage growth inhibition, dose response, SYBR Green fluorescence, erythrocytes, dry powder, set 2 (AID 1159574); assay type: functional, cell-based
Paired box protein Pax-8 = Paired box protein Pax-8 (Homo sapiens, UniProt Q06710); assay: inhibitors of PAX8-driven TPO luciferase reporter, dose response, RMG-I cells, cherry-pick (AID 687027); assay type: functional, cell-based;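 also: luciferase reporter driven by Pax8 target thyroperoxidase promoter measured by SteadyGlo luminescence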
[14] = IGROV1 ovarian cancer cell cytotoxicity, dose response, PAX8 inhibitor project, plate reader, dry powder samples (AID 743043); assay type: functional, cell-based; conditions: IGROV-1
[15] = target: G-protein coupled receptor 183 (Homo sapiens, UniProt P32249); assay: SAR confirmation of small molecule antagonists of the EBI2 receptor via a luminescent beta-arrestin assa.; assay type: functional
Vero [16] = assay: West Nile virus antiviral activity, cell-based, CPE readout (AID 1621); assay type: functional; conditions: Chlorocebus sabaeus
Vero [17] = assay: host cell cytotoxicity of antiviral hits, dose response, cytotoxicity control for West Nile virus antiviral project, secondary assay (AID 1650); assay type: functional; conditions: Chlorocebus sabaeus
Kallikrein-7 = Kallikrein-7 (Homo sapiens, UniProt P49862); assay: Fluorescence Intensity-based biochemical primary high throughput dose response assay to identify activators of kallikrein-7 (K7) zymogen.
Chain of Kallikrein-7 (P49862 whole entry): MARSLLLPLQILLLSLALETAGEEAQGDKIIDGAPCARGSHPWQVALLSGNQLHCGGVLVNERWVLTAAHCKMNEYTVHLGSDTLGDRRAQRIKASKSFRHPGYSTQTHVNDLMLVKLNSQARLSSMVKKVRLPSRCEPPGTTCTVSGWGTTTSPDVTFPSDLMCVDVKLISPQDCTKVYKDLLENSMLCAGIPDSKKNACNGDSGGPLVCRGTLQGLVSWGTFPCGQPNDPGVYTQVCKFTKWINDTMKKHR

T3 sequence (P65502 whole entry): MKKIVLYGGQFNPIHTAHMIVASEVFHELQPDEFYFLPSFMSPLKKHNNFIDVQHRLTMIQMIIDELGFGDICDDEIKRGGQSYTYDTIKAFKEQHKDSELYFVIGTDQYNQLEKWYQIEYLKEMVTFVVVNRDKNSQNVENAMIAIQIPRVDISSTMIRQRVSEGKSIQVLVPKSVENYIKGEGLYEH
Chain of Glutathione-S-transferase (Q26513 whole entry): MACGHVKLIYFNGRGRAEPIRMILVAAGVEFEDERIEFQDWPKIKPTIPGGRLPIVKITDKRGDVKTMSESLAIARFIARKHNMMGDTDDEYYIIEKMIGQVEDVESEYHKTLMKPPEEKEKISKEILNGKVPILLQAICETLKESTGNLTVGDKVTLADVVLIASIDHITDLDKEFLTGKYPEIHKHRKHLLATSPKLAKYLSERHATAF
Chain of Glucose-6-phosphate 1-dehydrogenase (P11413 whole entry): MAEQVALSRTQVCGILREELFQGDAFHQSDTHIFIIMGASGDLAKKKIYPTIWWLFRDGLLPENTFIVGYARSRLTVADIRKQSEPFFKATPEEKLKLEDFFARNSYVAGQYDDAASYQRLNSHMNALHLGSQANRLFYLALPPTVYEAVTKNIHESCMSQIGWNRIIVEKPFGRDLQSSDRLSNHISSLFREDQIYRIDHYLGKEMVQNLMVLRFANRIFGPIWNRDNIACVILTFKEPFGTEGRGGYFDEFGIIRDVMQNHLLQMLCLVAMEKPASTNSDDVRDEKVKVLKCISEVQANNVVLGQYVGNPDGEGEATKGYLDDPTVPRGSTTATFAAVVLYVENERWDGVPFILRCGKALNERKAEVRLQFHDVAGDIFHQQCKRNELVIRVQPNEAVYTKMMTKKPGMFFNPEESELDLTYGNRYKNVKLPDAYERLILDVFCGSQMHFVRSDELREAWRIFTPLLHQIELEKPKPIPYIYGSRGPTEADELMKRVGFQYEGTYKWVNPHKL
Chain of Protein Tat (P04608 whole entry): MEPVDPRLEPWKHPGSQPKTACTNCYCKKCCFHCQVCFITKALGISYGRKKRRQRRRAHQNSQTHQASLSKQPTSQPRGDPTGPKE
Chain of G-protein coupled receptor 183 (P32249 whole entry): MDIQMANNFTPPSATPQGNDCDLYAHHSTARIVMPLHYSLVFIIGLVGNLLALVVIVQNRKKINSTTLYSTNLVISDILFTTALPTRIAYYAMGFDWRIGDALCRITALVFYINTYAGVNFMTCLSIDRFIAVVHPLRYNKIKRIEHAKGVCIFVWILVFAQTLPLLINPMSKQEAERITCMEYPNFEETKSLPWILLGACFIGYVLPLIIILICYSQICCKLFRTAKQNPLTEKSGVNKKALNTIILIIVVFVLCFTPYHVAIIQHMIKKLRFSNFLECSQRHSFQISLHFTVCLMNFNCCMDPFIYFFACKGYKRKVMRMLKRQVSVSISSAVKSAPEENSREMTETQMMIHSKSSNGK
Chain of Nonstructural protein 1 (Q194T2 whole entry): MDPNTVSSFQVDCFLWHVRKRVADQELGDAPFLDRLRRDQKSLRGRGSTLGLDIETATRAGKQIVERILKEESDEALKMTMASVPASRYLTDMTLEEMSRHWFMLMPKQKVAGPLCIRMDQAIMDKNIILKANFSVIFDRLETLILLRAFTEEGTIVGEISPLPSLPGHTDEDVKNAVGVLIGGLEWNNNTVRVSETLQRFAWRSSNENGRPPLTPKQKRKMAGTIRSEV
Chain of Voltage-gated inwardly rectifying potassium channel KCNH2 (Q12809 whole entry): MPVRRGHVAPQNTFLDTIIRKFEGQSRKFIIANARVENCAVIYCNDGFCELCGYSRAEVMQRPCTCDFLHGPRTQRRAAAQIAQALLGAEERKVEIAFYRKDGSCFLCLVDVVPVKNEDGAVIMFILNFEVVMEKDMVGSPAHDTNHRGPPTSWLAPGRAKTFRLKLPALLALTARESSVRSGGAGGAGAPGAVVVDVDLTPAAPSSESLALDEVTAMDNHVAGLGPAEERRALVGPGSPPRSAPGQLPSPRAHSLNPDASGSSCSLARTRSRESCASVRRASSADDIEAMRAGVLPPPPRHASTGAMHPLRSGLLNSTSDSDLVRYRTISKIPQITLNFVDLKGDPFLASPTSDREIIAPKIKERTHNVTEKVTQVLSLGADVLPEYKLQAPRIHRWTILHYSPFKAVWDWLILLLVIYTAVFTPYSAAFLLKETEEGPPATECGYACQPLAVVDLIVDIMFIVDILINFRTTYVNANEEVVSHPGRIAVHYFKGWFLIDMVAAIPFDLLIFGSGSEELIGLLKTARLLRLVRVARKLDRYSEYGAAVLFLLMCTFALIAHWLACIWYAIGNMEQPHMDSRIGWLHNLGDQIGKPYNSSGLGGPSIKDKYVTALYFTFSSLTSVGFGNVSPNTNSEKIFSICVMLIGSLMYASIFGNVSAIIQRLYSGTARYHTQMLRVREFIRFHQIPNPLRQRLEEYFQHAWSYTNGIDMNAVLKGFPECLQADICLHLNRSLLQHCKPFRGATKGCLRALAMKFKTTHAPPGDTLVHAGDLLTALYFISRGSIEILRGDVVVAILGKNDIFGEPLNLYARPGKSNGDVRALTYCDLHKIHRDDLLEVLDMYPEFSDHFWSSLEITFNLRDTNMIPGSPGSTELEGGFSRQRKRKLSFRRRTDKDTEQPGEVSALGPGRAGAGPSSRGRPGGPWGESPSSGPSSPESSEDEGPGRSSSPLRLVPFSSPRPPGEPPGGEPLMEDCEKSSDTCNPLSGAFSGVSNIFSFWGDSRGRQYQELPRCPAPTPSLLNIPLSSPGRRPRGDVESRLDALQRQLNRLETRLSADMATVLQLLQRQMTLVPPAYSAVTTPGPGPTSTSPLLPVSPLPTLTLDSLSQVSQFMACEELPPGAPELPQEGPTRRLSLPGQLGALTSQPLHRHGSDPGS
Chain of Paired box protein Pax-8 (Q06710 whole entry): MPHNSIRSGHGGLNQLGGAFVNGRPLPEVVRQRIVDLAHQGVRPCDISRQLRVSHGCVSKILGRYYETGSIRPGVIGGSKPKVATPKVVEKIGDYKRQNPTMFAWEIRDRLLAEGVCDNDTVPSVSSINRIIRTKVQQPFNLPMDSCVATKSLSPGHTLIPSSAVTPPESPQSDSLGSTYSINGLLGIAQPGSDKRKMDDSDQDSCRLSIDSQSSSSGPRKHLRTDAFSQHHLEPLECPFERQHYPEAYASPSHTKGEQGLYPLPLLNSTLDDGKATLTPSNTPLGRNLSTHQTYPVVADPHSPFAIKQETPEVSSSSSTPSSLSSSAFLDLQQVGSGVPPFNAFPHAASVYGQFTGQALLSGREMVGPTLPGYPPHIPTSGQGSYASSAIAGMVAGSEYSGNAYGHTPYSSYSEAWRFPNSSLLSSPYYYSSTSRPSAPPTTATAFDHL

SMILES: COc1ccccc1Nc1nc(-c2cccs2)cs1
- EC50 [1]: > 67.5 µM (inactive)
- EC50 (cells): > 67.5 µM (inactive)
- CC50 [2]: 47.2 µM (active)

SMILES: CCOC(=O)c1sc2nc(Cc3ccc(Cl)cc3)[nH]c(=S)c2c1C
- EC50 [3]: 0.92 µM (active)
- EC50 (Streptokinase A): > 150 µM (not active)

SMILES: CCN1/C(=C/C=C/C=C/C=C/c2sc3ccccc3[n+]2CC)Sc2ccccc21
- IC50 [4]: 19.8 µM (active)
- IC50 [5]: > 80 µM (inactive)
- IC50 (Protein Tat): > 100 µM (active)
- CC50 [6]: 1.26 µM (active)
- IC50 [7]: 3.88 µM (active)
- EC50 [8]: 10.6 µM (active)
- IC50 [9]: 27 µM (active)
- EC50 (BJ [10]): 3.21 µM (active)
- EC50 (BJ [11]): 17.8 µM (active)
- IC50 (Nonstructural protein 1): 5.73 µM (active)
- EC50 (BJ [12]): 11.8 µM (inconclusive)

SMILES: CN1c2ccccc2Sc2cc(NC(=O)c3ccc(C(=O)c4ccccc4)cc3)ccc21
- IC50 (NADPH oxidase 1): > 50 µM (not active)

SMILES: COc1ccc(NC(=O)N2CCCCN3[C@H](CO)[C@H](c4ccc(C#Cc5ccccc5)cc4)[C@H]3C2)cc1
- AC50 [13]: 3.22 µM (active)
- AC50 (Paired box protein Pax-8): 23.2 µM (active)
- AC50 [14]: 46.7 µM (active)

SMILES: CC(C)(C)c1ccc(CN2CCN(C(=O)/C=C/c3ccc(Br)cc3)CC2)cc1
- IC50 [15]: 0.00936 µM (active)

SMILES: CCN(CC)S(=O)(=O)c1ccc2nc(O)c3ccccc3c2c1
- IC50 (Vero [16]): 45.5 µM (active)
- CC50 (Vero [17]): 38.9 µM (active)

SMILES: Cc1cccn2c(=O)c3cc(C#N)/c(=N/C(=O)c4ccccc4)n(Cc4ccco4)c3nc12
- EC50 (Kallikrein-7): 7.95 µM (active)
